The term CC50 denotes the concentration at which the toxic effect on the cells reaches its halfway point.

Each structure is given as a SMILES string. Like-named read-outs stand apart in the source and are kept apart here. Where only a bound is given, the exact number is not on record here.

One data set has as its system HIV-1 (IIIB). Nature of the data set: Inhibition of HIV-1 (IIIB)-induced cytopathicity (giant cell formation) in CEM cells. The data set is classed as cell-based. The note with it: read-out: EC50 HIV-1 (concentration required to inhibit HIV-induced giant cell formation by 50%); HIV-1, CEM cell cultures. As to the method:
(§1) A variety of glycopeptide antibiotic derivatives of vancomycin, eremomycin and teicoplanin including their aglycon derivatives were evaluated for their inhibitory activity against HIV-1 (IIIB) and HIV-2(ROD) in CEM cell cultures.
(In general: Damage to the host cells serves as the signal in cytopathic effect assays.)

The subject of another data set is FCK cells. The note with it: read-out: CC50 FCK; FCK cells.
In the next data set the test system is FCV. Nature of the data set: Feline corona virus assay in Feline Crandel kidney cells (MTS). The data set is classed as cell-based. The note with it: for EC50: FCV in FCK cells, read-out: EC50 FCV. As to the method:
Feline Crandel kidney cells were seeded in 96-well microtiter plates at 24,000 cells/well. Then, 24 hrs later, an appropriate inoculum of FCV is added together with 5-fold dilutions of the test compounds. After 4 days, a MTS/PMS solution was added to each well. Following a 90 min incubation period at 37° C., the optical density of the wells was read at 498 nm in a microplate reader.

A further data set deals with HIV-2(ROD). The data set can be described thus: Inhibition of HIV-2 (ROD)-induced cytopathicity (giant cell formation) in CEM cells. The data set is classed as cell-based. The note with it: read-out: EC50 HIV-2 (concentration required to inhibit HIV-induced giant cell formation by 50%); HIV-2, CEM cell cultures. How it is done: as §1
The next data set relates to murine leukemia L1210. Nature of the data set: Cytostatic activity assay, L1210 cells. The data set is classed as cell-based. The note with it: read-out: IC50 L1210 (compound concentration required to inhibit tumor cell proliferation by 50%).
The test system of data set [1] is human lymphocyte Molt4/clone 8. The data set can be described thus: Cytostatic activity assay, Molt4/clone 8 cells. The data set is classed as cell-based. The note with it: read-out: IC50 Molt4/C8 (compound concentration required to inhibit tumor cell proliferation by 50%).
The subject of another data set is human lymphocyte CEM. The data set can be described thus: Cytostatic activity assay, CEM cells. Format: cell-based. The note with it: read-out: IC50 CEM (compound concentration required to inhibit tumor cell proliferation by 50%).
Data set [2] deals with HEL cells. The note with it: read-out: CC50 (HEL); HEL cells; anti-VZV table.
A further data set has as its system VZV (wild-type strains). The data set can be described thus: Anti-VZV assay (wild-type strains): virus-induced cytopathicity in HEL cell cultures. Format: cell-based, varicella-zoster virus. The note with it: for EC50: HEL cell cultures.
In data set [3] the test system is HEL cells. The following applies: anti-VZV table.
Setting [4] is: VZV strain OKA, read-out: EC50 VZV (OKA).
Where [5] appears, read: VZV strain YS, read-out: EC50 VZV (YS).

On to `NC(=O)CC1NC(=O)C(N)C(O)c2ccc(c(Cl)c2)Oc2cc3cc(c2O)Oc2ccc(cc2)C(O)C2NC(=O)C(NC(=O)C3NC1=O)c1ccc(O)c(c1)-c1c(O)cc(O)cc1C(C(=O)NCc1ccc(F)cc1)NC2=O` (stereo not shown) [Compound 106], for which the EC50 came out at 27 µM with HIV-1 (IIIB), 74 µM in the data set on FCV and 30 µM in the data set on HIV-2(ROD). The CC50 with FCK cells was more than 300 µM.

`CCCCCCCCCCNCc1c(O)cc2c(c1O)-c1cc(ccc1O)C1NC(=O)C3NC(=O)C4NC(=O)C(Cc5ccc(c(Cl)c5)Oc5cc3cc(c5O)Oc3ccc(cc3Cl)C(O)C(NC1=O)C(=O)NC2C(=O)NC)NC(=O)C(NC(=O)C(N)CCCCN)c1ccc(O)c(c1)Oc1cc(O)cc4c1` (stereo not shown) [Compound 24]: the EC50 in the data set with HIV-1 (IIIB) came to 4 µM; with VZV (wild-type strains) (setting [4]), 1.2 µM; in the data set on VZV (wild-type strains) (setting [5]), 1.9 µM; with HIV-2(ROD) it was 6 µM. Also, the IC50 in the data set on murine leukemia L1210 came out at 12 ± 6 µM; in data set [1] it was 41 ± 8 µM; in the data set on human lymphocyte CEM, 46 ± 8 µM. The CC50 in the data set with HEL cells [2] stood at 87 µM. Further, in the data set with HEL cells [3], the “MTC (HEL)” value is reported as “≧5 μM”.

For `CCCCCCCCCCNC(=O)C(N)CCCCNCc1c(O)cc2c(c1O)-c1cc(ccc1O)C1NC(=O)C3NC(=O)C4NC(=O)C(Cc5ccc(c(Cl)c5)Oc5cc3cc(c5O)Oc3ccc(cc3Cl)C(O)C(NC1=O)C(=O)NC2C(=O)NCCCN(C)C)NC(=O)C(N)c1ccc(O)c(c1)Oc1cc(O)cc4c1` (stereo not shown) [Compound 16], the EC50 in the data set on HIV-1 (IIIB) was found to be 3.5 ± 0.7 µM; in the data set with VZV (wild-type strains) (setting [4]), 2.5 µM; with VZV (wild-type strains) (setting [5]), 2.4 µM; in the data set on HIV-2(ROD), 5.5 ± 2.1 µM. Also, the IC50 was determined as 19 ± 5 µM in the data set with murine leukemia L1210, 76 ± 8 µM in data set [1] and 389 ± 99 µM with human lymphocyte CEM. In addition, the CC50 with HEL cells [2] amounted to 137 µM. Also, the “MTC (HEL)” value in the data set with HEL cells [3] is reported as “≧5-50 μM”.

As to `CCCCCCCCCC[N+](C)(C)CCCNCc1c(O)cc2c(c1O)-c1cc(ccc1O)C1NC(=O)C3NC(=O)C4NC(=O)C(Cc5ccc(c(Cl)c5)Oc5cc3cc(c5O)Oc3ccc(cc3Cl)C(O)C(NC1=O)C(=O)NC2C(=O)NCCO)NC(=O)C(N)c1ccc(O)c(c1)Oc1cc(O)cc4c1` (stereo not shown) [Compound 36], the EC50 was 2.1 ± 0.14 µM in the data set with HIV-1 (IIIB), not below 5 µM in the data set with VZV (wild-type strains) (setting [4]), 1.9 µM in the data set on VZV (wild-type strains) (setting [5]) and 4.2 ± 2.47 µM with HIV-2(ROD). The IC50 in the data set on murine leukemia L1210 was 12 ± 0.1 µM; in data set [1], 73 ± 34 µM; with human lymphocyte CEM, not below 100 µM. In addition, in the data set on HEL cells [2], the CC50 is more than 200 µM. Also, the “MTC (HEL)” value in the data set with HEL cells [3] was “≧20-50 μM”.

Consider `NC(=O)CC1NC(=O)C(N)C(O)c2ccc(c(Cl)c2)Oc2cc3cc(c2O)Oc2ccc(cc2)C(O)C2NC(=O)C(NC(=O)C3NC1=O)c1ccc(O)c(c1)-c1c(O)cc(O)cc1C(C(=O)NCC13CC4CC(CC(C4)C1)C3)NC2=O` (stereo not shown) [Compound 107], for which the figures for the EC50 in the data set on HIV-1 (IIIB), in the data set with FCV and in the data set with HIV-2(ROD) were 5 µM, 40 µM and 3.5 µM, respectively. Besides, the CC50 with FCK cells was more than 300 µM.

Regarding `NC1C(=O)NC2Cc3ccc(c(Cl)c3)Oc3cc4cc(c3O)Oc3ccc(cc3Cl)C(O)C3NC(=O)C(NC(=O)C4NC(=O)C(NC2=O)c2cc(O)cc(c2)Oc2cc1ccc2O)c1ccc(O)c(c1)-c1c(cc(O)c(CN2CCN(N=Cc4ccc(Cl)cc4)CC2)c1O)C(C(=O)O)NC3=O` (stereo not shown) [Compound 17], the EC50 is 8 ± 2.8 µM with HIV-1 (IIIB), 4.1 µM with VZV (wild-type strains) (setting [4]), 4.2 µM with VZV (wild-type strains) (setting [5]) and 22 ± 3.5 µM with HIV-2(ROD). The IC50 with murine leukemia L1210 is 97 ± 4.3 µM; in [1], more than 100 µM; in the data set on human lymphocyte CEM, more than 100 µM. The CC50 with HEL cells [2] is more than 50 µM. In addition, in the data set on HEL cells [3], the “MTC (HEL)” value was “≧20-200 μM”.

On to `CCCCCCCCCC[N+](C)(C)CCCNCc1c(O)cc2c(c1O)-c1cc(ccc1O)C1NC(=O)C3NC(=O)C4NC(=O)C(Cc5ccc(c(Cl)c5)Oc5cc3cc(c5O)Oc3ccc(cc3Cl)C(O)C(NC1=O)C(=O)NC2C(=O)O)NC(=O)C(N)c1ccc(O)c(c1)Oc1cc(O)cc4c1` (stereo not shown) [Compound 33], for which the EC50 is 2.2 µM in the data set with HIV-1 (IIIB), not below 5 µM in the data set on VZV (wild-type strains) (setting [4]), 2.4 µM with VZV (wild-type strains) (setting [5]) and 7.5 ± 0.7 µM in the data set on HIV-2(ROD). The IC50 in the data set on murine leukemia L1210 is 51 ± 26 µM; in data set [1], 65 ± 1 µM; in the data set with human lymphocyte CEM it was 74 ± 5 µM. For the same compound, the CC50 in the data set with HEL cells [2] was not below 200 µM. In addition, the “MTC (HEL)” value with HEL cells [3] lay within 5 to 50 µM.

For the compound `CCCCCCCCCCCNC1C(=O)NC2Cc3ccc(c(Cl)c3)Oc3cc4cc(c3O)Oc3ccc(cc3Cl)C(O)C3NC(=O)C(NC(=O)C4NC(=O)C(NC2=O)c2cc(O)cc(c2)Oc2cc1ccc2O)c1ccc(O)c(c1)-c1c(O)cc(O)cc1C(C(=O)NCCCN(C)C)NC3=O` (stereo not shown) [Compound 32], the EC50 in the data set with HIV-1 (IIIB) is 5.5 ± 2.1 µM; with VZV (wild-type strains) (setting [4]), not below 5 µM; in the data set on VZV (wild-type strains) (setting [5]), 2.3 µM; in the data set with HIV-2(ROD) it was 12.5 ± 3.5 µM. The IC50 was 23 ± 7 µM in the data set on murine leukemia L1210, 35 ± 2 µM in [1] and 90 ± 27 µM in the data set on human lymphocyte CEM. Besides, the CC50 in the data set with HEL cells [2] stood at 30 µM. For the same compound, the “MTC (HEL)” value with HEL cells [3] amounted to 20 µM.

In the case of `NC(=O)CC1NC(=O)C(N)C(O)c2ccc(c(Cl)c2)Oc2cc3cc(c2O)Oc2ccc(cc2)C(O)C2NC(=O)C(NC(=O)C3NC1=O)c1ccc(O)c(c1)-c1c(O)cc(O)cc1C(C(=O)N1CCC3CCCCC3C1)NC2=O` (stereo not shown) [Compound 108], the EC50 with HIV-1 (IIIB) was 2.8 µM; in the data set with FCV, 81 µM; in the data set with HIV-2(ROD) it was 2 µM. Also, the CC50 with FCK cells was more than 300 µM.

For `CNC(=O)C1NC(=O)C2NC(=O)C(NC(=O)C3NC(=O)C(CC(N)=O)NC(=O)C(NC(=O)C(CC(C)C)NC)C(O)c4ccc(c(Cl)c4)Oc4cc3cc(c4O)Oc3ccc(cc3)C2O)c2ccc(O)c(c2)-c2c1cc(O)c(CN1CCN(Cc3ccc(-c4ccccc4)cc3)CC1)c2O` (stereo not shown) [Compound 8], the EC50 stood at 4 ± 1.7 µM in the data set on HIV-1 (IIIB), 2.3 µM in the data set on VZV (wild-type strains) (setting [4]), 1.5 µM in the data set with VZV (wild-type strains) (setting [5]) and 5.5 ± 0.7 µM with HIV-2(ROD). The IC50 (with murine leukemia L1210; in data set [1]; in the data set with human lymphocyte CEM) was more than 100 µM each time. In addition, the half-maximal cytotoxic concentration (CC50) in the data set on HEL cells [2] is more than 50 µM. The “activity against VZV” value with VZV (wild-type strains) is recorded as “pronounced activity”. Also, in the data set with HEL cells [3], the “MTC (HEL)” value was “≧20 μM”.

In the case of `CCCCCCCCCCNC(=O)C1NC(=O)C2NC(=O)C(NC(=O)C3NC(=O)C4NC(=O)C(Cc5ccc(c(Cl)c5)Oc5cc3cc(c5O)Oc3ccc(cc3Cl)C2O)NC(=O)C(N)c2ccc(O)c(c2)Oc2cc(O)cc4c2)c2ccc(O)c(c2)-c2c1cc(O)c(CNCCCN(C)C)c2O` (stereo not shown) [Compound 20], the EC50 came to 4.5 ± 0.7 µM in the data set on HIV-1 (IIIB), 2 µM with VZV (wild-type strains) (setting [4]), 2.3 µM in the data set on VZV (wild-type strains) (setting [5]) and 44 ± 1.4 µM in the data set on HIV-2(ROD). Further, the results for the IC50 (with murine leukemia L1210; in data set [1]; in the data set on human lymphocyte CEM) were 17 ± 9 µM, 58 ± 12 µM and 53 ± 11 µM, respectively. Further, the CC50 with HEL cells [2] turned out to be 169 µM. In the data set on HEL cells [3], the “MTC (HEL)” value is listed as “≧5-20 μM”.

Regarding `CCCCCCCCCCCCCCCCCCNCc1c(O)cc2c(c1O)-c1cc(ccc1O)C1NC(=O)C3NC(=O)C(CC(N)=O)NC(=O)C(NC(=O)C(CC(C)C)NC)C(O)c4ccc(c(Cl)c4)Oc4cc3cc(c4OC3OC(CO)C(O)C(O)C3OC3CC(C)(N)C(O)C(C)O3)Oc3ccc(cc3)C(OC3CC(C)(N)C(O)C(C)O3)C(NC1=O)C(=O)NC2C(=O)O` (stereo not shown) [Compound 63], the CC50 in the data set with FCK cells was determined as 15 µM. For the same compound, in the data set with FCV, the “activity against FCV” value is “active” and the EC50 is 3.4 µM.

For the origin of these results see patent US20050250677A1, “Glycopeptide antibiotic derivatives” (priority 2002, published 2005).
